This passage reports IC50 results from PubChem BioAssay AID2305 (GlaxoSmithKline (GSK), 2010).

Each structure is given as a SMILES string.

This test concerns P. falciparum 3D7 growth, pLDH absorbance. The experiment in a line: blood-stage malaria parasite growth potency – strain 3D7, dose response (AID 2305).
In the case of `CC(CN1CCN(CC(c2ccc(F)cc2)N2CCN(C)CC2)CC1)C(=O)c1ccc(O)cc1` (centres undefined), the IC50 was found to be 670 nM.
In turn, `O=C(Cc1cc(=O)oc2cc(O)ccc12)N1CCC(CN2CCC(c3c[nH]c4ccccc34)CC2)CC1` gave an IC50 of 870 nM.
The molecule `CCN1CCC(N(Cc2ccc(-c3ccc(C(F)(F)F)cc3)cc2)C(=O)Cn2c(CCc3cccc(F)c3F)cc(=O)c3cn(C)nc32)CC1` came in with an IC50 of 240 nM.
Take `CCCc1ccc(Nc2nc(C)cc(N(CC)CCCN3CCCCC3)n2)cc1`: the IC50 was 540 nM.
Consider `Fc1ccc(Nc2ccnc3cc(I)ccc23)c(Cl)c1`, for which the IC50 was 1080 nM.
On to `Cc1cccc2[nH]c(-c3ccc(-c4cccc(CN5CCN(c6ccc(C#N)cn6)CC5)c4)s3)nc12`, for which the IC50 stood at 1420 nM.
Take `COCCCN=C(N)c1ccc(NC(=O)c2ccc(C(=O)Nc3ccc(C(N)=NCCCOC)cc3)cc2)cc1`: the IC50 was 50 nM.
As for `CCNc1cc(C(=O)N[C@@H](Cc2ccccc2)[C@H](O)CNC2(CC)CCCCC2)cc(N2CCCCS2(=O)=O)c1`, the IC50 is 270 nM.
Regarding `CC(C)C[C@H](NC(=O)c1ccc(OCCN2CCOCC2)cc1)C(=O)N[C@H](/C=N/NC(=O)OC(C)(C)C)CCc1ccccc1`, the IC50 worked out at 160 nM.
For the molecule `Cc1[nH]c(C)c(-c2ccc(Oc3ccc(F)cc3)cc2)c(=O)c1Br`, the IC50 came to 50 nM.
Then `CO/C(=C\C=C\c1cc2cc(Cl)c(Cl)cc2[nH]1)C(=O)NC1C[C@H]2CC[C@@H](C1)N2C` (some centres undefined), with 1030 nM.
Then `Fc1cccc(COc2ccc(Nc3ncnc4cc(/C=C/[C@@H]5CCCN5)sc34)cc2Cl)c1`, with 590 nM.
`CCCc1ccc(NC(=O)c2cccc(CN3CCCN(Cc4cccc(O)c4)CC3)c2)cc1` registered an IC50 of 750 nM.
With `Cn1c(=N)n(CC(=O)N2CCc3ccc(Cl)cc3C2Cc2ccc(Cl)c(Cl)c2)c2ccccc21` (centres undefined) the figure was 870 nM.
In turn, `O[C@@H](c1cccc(OCc2ccccc2)c1)[C@@H]1CN(CCc2ccccc2)CC[C@@]1(O)c1ccccc1` came in with an IC50 of 220 nM.
With `CN1CCC(Oc2ccc(CN3CC[C@H](NC(=O)c4cc(F)cc(F)c4)C3)c3ccccc23)C1` (some centres undefined) the figure was 840 nM; with `Cc1cccc2[nH]c(-c3ccc(-c4cccc(NC(=O)Nc5ccc(Cl)cc5)c4)s3)nc12`, 520 nM.
Molecule `CCCCN(CCCC)C(=N)c1cccc2c1CCCC2` gave an IC50 of 1560 nM.
`O=c1ccc2ccc(F)c3c2n1CC3CN1CCC(NCc2cccc(-c3cccs3)c2)CC1` (centres undefined) yielded an IC50 of 830 nM.
`O=C(Nc1cccc(CN2CCCN(Cc3ncc[nH]3)CC2)c1)c1cc2ccccc2s1` yielded an IC50 of 730 nM.
As for `Cc1ccc(CNC(=O)c2cc3c(=O)n4cccc(C)c4nc3n(CCN3CCOCC3)c2=N)cc1`, the IC50 came out at 850 nM.
Then `CC(NC(=O)c1ccc(O)c(-c2ccc(Cl)c(Cl)c2)c1)C(=O)NC1CCCCC1` (centres undefined), with 840 nM.
Molecule `CSCCC(C(=O)O)N1C(=O)c2ccccc2C1=O` (centres undefined) had an IC50 of 1030 nM.
Take `O=C(Nc1cccc(-c2cccc(-c3nc4ccccc4[nH]3)c2)c1)c1ccoc1`: the IC50 worked out at 740 nM.
Turning to `C[C@H](Cc1ccc(C(=O)OC(c2ccccc2)c2ccccc2)cc1)NC[C@H](O)c1ccccc1`, the IC50 came to 180 nM.
With `Nc1ncc(-c2cn[nH]c2)cc1-c1nc2ncc(Cl)cc2[nH]1` the figure was 910 nM.
In turn, `N#Cc1cccc(NC(=O)Nc2ccc3c(c2)CN(Cc2c[nH]c4ncccc24)C3)c1` registered an IC50 of 800 nM.
`Cc1cccc2[nH]c(-c3ccc(-c4cccc(CNCCCNS(C)(=O)=O)c4)s3)nc12` came in with an IC50 of 1020 nM.
`COc1ccc2ncc(C#N)c(CCN3CCC(NCc4ccc5c(n4)NC(=O)CS5)CC3)c2n1`: the IC50 is 840 nM.
Turning to `CC[C@H]1CN2CC[C@H]1C[C@H]2[C@H](O)c1cc(N2CCCC(CO)C2)nc2ccc(OC)cc12` (some centres undefined), the IC50 turned out to be 80 nM.
As to `COCCn1c(-c2cccc(Cl)c2)nn(-c2ccc([N+](=O)[O-])cc2C#N)c1=S`, the IC50 was 180 nM.
`COc1ccc(-c2cccc(NC(=O)c3ccc(F)cc3)c2)cc1CN1CCCN(C)CC1` had an IC50 of 830 nM.
Then `Cc1ccc2nc(C)n(C3CCN(C(=O)Cc4ccc(F)c(F)c4)CC3)c2c1`, with 470 nM; and `CC1(C)N=C(NC(=O)Nc2ccc([N+](=O)[O-])cc2)N=C(N)N1OCc1cccc2ccccc12`, with 60 nM; and `CC(C)(C)C(=O)Nc1ccc(C(=O)Nc2cccc(-c3nc4ccccc4[nH]3)c2)cc1`, with 280 nM.
With `COc1ccc2c(NCCc3ccccc3)cc(-c3ccccc3)nc2c1` the figure was 990 nM; with `Cc1ccc(Cn2cnc3cc(C(=O)Nc4ccc(-c5cccc(CN(C)C)c5)cc4)ccc3c2=O)o1`, 630 nM.
With `CCN(CC)CCCOc1ccc(Nc2nccc(-c3c(-c4cccc(NC(=O)c5c(F)cccc5F)c4)nn4ccccc34)n2)cc1F` the figure was 410 nM; with `Cc1nc(-c2cccc(Nc3ccnc4cc(-c5nccs5)ccc34)c2)no1`, 320 nM; with `COc1ccc(-c2ccc(NC(=O)c3cccs3)cc2)cc1CN1CCCN(C)CC1`, 960 nM.
The molecule `O=C(Nc1ccc(Cl)cc1Cl)NC1CCN(CCCCCNC(=O)[C@@H]2C[C@H]2c2ccc(Cl)c(Cl)c2)CC1` came in with a 50% inhibitory concentration (IC50) of 370 nM.
Then `COc1cc2nc(N3CCC(c4ccccc4)CC3)nc(NCc3ccc(=O)[nH]c3)c2cc1OC`, with 750 nM; and `O=C(Cn1c(CCc2cccc(F)c2F)nc(=O)c2ccccc21)N(Cc1ccc(-c2ccc(C(F)(F)F)cc2)cc1)C1CCN(C2CCSCC2)CC1`, with 860 nM.
Molecule `O=C(C=Cc1ccc(-c2nc3ccccc3[nH]2)cc1)NC1CCN(Cc2ccccc2)CC1` registered an IC50 of 740 nM.
Then `O=C(Nc1cccc(-c2ccc(-c3nc4ccc(F)cc4[nH]3)cc2)c1)c1csnn1`, with 280 nM.
The molecule `O=C(NC1CCCCC1)C1CCCN(C(=O)c2ccc(O)c(-c3ccc(Cl)c(Cl)c3)c2)C1` (centres undefined) had an IC50 of 900 nM.
In the case of `O=C(NC1CCN(Cc2ccccc2)CC1)c1csc2nc(-c3ccc(Cl)cc3)cn12`, the IC50 was found to be 910 nM.
With `O=C(CNC1=NCCN1)Nc1ccc(NC(=O)Nc2ccc(NC(=O)CNC3=NCCN3)cc2)cc1` the figure was 780 nM; with `O=C(Nc1ccccc1-c1nc2ccccc2s1)C(Cl)(Cl)Cl`, 640 nM; with `Oc1ccc(CCCNc2nc(NCc3cccc4ccccc34)nc(N3CCNCC3)n2)cc1`, 810 nM.
For the molecule `CC(C)Nc1ccc(Nc2ccnc3cc4ccccc4cc23)cc1`, the IC50 was 140 nM.
The molecule `N=c1sc2ccccc2n1CC(O)c1ccc(Cl)c(Cl)c1` (centres undefined) yielded an IC50 of 800 nM.
`Cc1ncccc1C(=O)Nc1cccc(-c2cccc(-c3nc4ccc(C(F)(F)F)cc4[nH]3)c2)c1` had an IC50 of 600 nM.
`N=c1c2c(n(Cc3ccccc3)c3c1CCC3)CCCC2` showed an IC50 of 870 nM.
In the case of `O=C(NCCN1CCCC1)N1CCCN(c2ncnc3cc(-c4ccc(Cl)cc4)sc23)CC1`, the IC50 was determined as 920 nM.
The molecule `CN(C)CCOc1ccc(N2CCN(CCCCNC(=O)c3ccc(/C=C/c4cc(Cl)cc(Cl)c4)cc3)CC2)cc1` had an IC50 of 1000 nM.
The molecule `COc1ccc2nccc(NN=Cc3cccc([N+](=O)[O-])c3)c2c1` returned an IC50 of 400 nM.
Regarding `O=C1OC2(CN1CC1CCN(Cc3ccc(O)c(Cl)c3)CC1)c1ccccc1-c1ccccc12`, the IC50 is 760 nM.
As for `CCn1ncc(Cl)c1CN(C)S(=O)(=O)c1ccc2ccccc2c1`, the IC50 came to 820 nM.
Consider `O=C(/C=C/c1ccc(Cl)c(Cl)c1)NCCCCCN1CCCN(C(=S)Nc2cccc(Cl)c2)CC1`, for which the IC50 stood at 1050 nM.
In turn, `O=C(Nc1cccc(-c2csc(-c3nc4ccccc4[nH]3)c2)c1)c1cc(=O)c2ccccc2[nH]1` registered an IC50 of 230 nM.
`CCNc1cc(C(=O)N[C@@H](Cc2ccc(Cl)cc2)[C@H](O)CNC2CCCCC2)cc(N2CCCCS2(=O)=O)c1`: the IC50 amounted to 150 nM.
Then `CN1CCN(C(C(=O)NCc2cc(Cl)cc(Cl)c2)c2ccc(Nc3cccc(C(F)(F)F)c3)cc2)CC1` (centres undefined), with 1120 nM.
`O=C(NCCCN1CCOCC1)c1cccc(Nc2nccc(Nc3ccc(Oc4ccccc4)cc3)n2)c1` displayed an IC50 of 770 nM.
With `CC(C)C[C@@H](CNC[C@H](CC(C)C)NC(=O)OC(C)(C)C)NC(=O)OC(C)(C)C` the figure was 1250 nM; with `CC(C)CCNc1nc2ccccc2nc1Nc1cccc(C(F)(F)F)c1`, 910 nM; with `Nc1cc(-c2cccc(Cl)c2)nn1-c1ccnc2cc(Cl)ccc12`, 750 nM.
Molecule `CCCC(CNCc1cccc(OC(F)(F)F)c1)CNc1cc(=O)c2ccccc2[nH]1` (centres undefined) registered an IC50 of 560 nM.
Turning to `COc1cc(C(=O)Nc2nc3ccccc3[nH]2)ccc1OCC(=O)Nc1cccc(C(F)(F)F)c1`, the IC50 turned out to be 740 nM.
With `COc1ccc2nccc([C@@H](O)CN3CCC(NC(=O)c4ccc5cc[nH]c5c4)CC3)c2c1` the figure was 970 nM; with `CS(=O)(=O)N(c1ccccc1)c1cc(C(=O)N[C@@H](Cc2ccccc2)[C@H](O)CNC2CCCCC2)cc(N2CCCC2=O)c1`, 80 nM; with `Fc1ccc2nc(-c3ccc(-c4ccc(CNCCc5ccncc5)cc4)cc3)[nH]c2c1`, 140 nM.
For the molecule `C#CCOc1ccc2ccccc2c1CNCCCCCCNCc1c(OCC#C)ccc2ccccc12`, the IC50 is 780 nM.
For the molecule `CCCC(C)Nc1nc(C)cc(N[C@@H](Cc2ccccc2)C(=O)Nc2ccccc2)n1` (some centres undefined), the IC50 worked out at 860 nM.
`COc1ccc2nccc(N3CCC(SCCNS(=O)(=O)c4ccc5c(c4)OCCO5)C3)c2n1` (centres undefined): the IC50 was determined as 980 nM.
As to `CC(=O)c1ccc(-c2ccc(C(=O)NCCCCN3CCC(c4ccc5c(c4OCC(N)=O)CCCC5)CC3)cc2)s1`, the IC50 turned out to be 890 nM.
The molecule `Cc1cccc(CNc2nc(C)cc(NCCC(=O)NCc3cccc(F)c3)n2)c1` gave an IC50 of 850 nM.
With `Nc1nc(N)c2c(Cl)c(N3CCOCC3)ccc2n1`, the IC50 came out at 80 nM.
On to `CC(C)(C)CCN1CCC(NC(=O)c2ccc(-c3cccc(C(F)(F)F)c3)s2)CC1`, for which the IC50 is 760 nM.
Molecule `COc1ccc2nccc([C@@H](O)CN3CCC(NC(=O)c4cc5c(F)cc(F)cc5[nH]4)CC3)c2c1` showed an IC50 of 240 nM.
In turn, `CCOC(=O)c1[nH]c2cc(Cl)cc(Cl)c2c1/C=C/C(=O)Nc1ccc(-c2cnc(NC(C)=O)[nH]2)cc1` displayed an IC50 of 1020 nM.
Turning to `O=S(=O)(NC1CCN(c2ccnc3cc(Cl)ccc23)C1)c1cccc(F)c1` (centres undefined), the IC50 was 490 nM.
In turn, `CC[C@H]1CN2CC[C@H]1C[C@H]2[C@H](O)c1cc(N2CCCC2)nc2ccc(OC)cc12` came in with an IC50 of 40 nM.
In turn, `O=C(NCc1ccccc1)c1nn(CCCN2CCC3(CC2)C(=O)NCN3c2ccccc2)cc1-c1ccc(Cl)c(Cl)c1` returned an IC50 of 1050 nM.
